# Results reported in patent US9255132B2, “Angiopoietin derived peptides” (Compugen Ltd., priority 2008, dated 2016).
# B1: Tie-2/Fc: recombinant rat Tie-2/Fc (R&D Systems, 3874-T2), positive control (protein)
# chain: AMDLILINSLPLVSDAETSLTCIASGWRPHEPITIGRDFEALMNQHQDPLEVTQDVTREWAKKVVWKREKASKINGAYFCEGRVRGEAIRIRTMKMRQQASFLPATLTMTVDKGDNVNISFKKVLIKEEDAVIYKNGSFIHSVPRHEVPDILEVHLPHAQPQDAGVYSARYIGGNLFTSAFTRLIVRRCEAQKWGPECNHLCTACMNNGVCHEDTGECICPPGFMGRTCEKACELHTFGRTCKERCSGQEGCKSYVFCLPDPYGCSCATGWKGLQCNEACHPGFYGPDCKLRCSCNNGEMCDRFQGCLCSPGWQGLQCEREGIQRMTPKIVDLPDHIEVNSGKFNPICKASGWPLPTNEEMTLVKPDGTVLHPKDFNHTDHFSVAIFTIHRILPPDSGVWVCSVNTVAGMVEKPFNISVKVLPKPLNAPNVIDTGHNFAVINISSEPYFGDGPIKSKKLLYKPVNHYEAWQHIQVTNEIVTLNYLEPRTEYELCVQLVRRGEGGEGHPGPVRRFTTASIGLPPPRGLNLLPKSQTTLNLTWQPIFPSSEDDFYVEVERRSVQKSDQQNIKVPGNLTSVLLNNLHPREQYVVRARVNTKAQGEWSEDLTAWTLSDILPPQPENIKISNITHSSAVISWTILDGYSISSITIRYKVQGKNEDQHVDVKIKNATITQYQLKGLEPETAYQVDIFAENNIGSSNPAFSHELVTLPESQAPADLGGGK
# modifications: left off: a dimerising Fc or GST
# notes: recombinant rat Tie-2/Fc (R&D Systems, 3874-T2), positive control
# What was measured:
# [1] = test system: co-culture of early passage human endothelial cells with early passage human interstitial cells; test: AngioKit in vitro angiogenesis, total tubule length; format: cell-based; conditions: 14 days, data not shown
# [2] = test system: avian chorioallantoic membrane (CAM); format: in vivo, Leghorn fertilized eggs; conditions: fumagillin 5 μg/CAM; 48 h
# Description: CGEN-G6 [SEQ ID NO: 6], CGEN-F9 [SEQ ID NO: 7], CGEN-F12 [SEQ ID NO: 8], CGEN-C6 [SEQ ID NO: 9], CGEN-A11 [SEQ ID NO: 10], and CGEN-G2 [SEQ ID NO: 11], were analyzed for their ability to affect angiogenesis using the in ovo avian chorioallantoic membrane (CAM) model of angiogenesis, which is widely used as a model to examine compounds affecting angiogenesis (Richardson and Singh 2003, Curr Drug Targets Cardiovasc Haematol Disord., 3(2):155-85). Two positive controls were used: fumagillin as a general anti-angiogenic compound, and Tie2 neutralizing antibody as anti-angiogenic inhibitor of the Ang/Tie2 pathway. Leghorn fertilized eggs were incubated for 4 days at 37° C., when a window was opened on the egg's shell, exposing the CAM. Two different doses of peptides (0.5 and 5 nmol/CAM), Tie-2 neutralizing antibody (R&D Systems, Cat#AF313, 10 μg/ml; 0.4 μg/CAM) or fumagillin (Tocris Bioscience, Cat #1768; 5 μg/CAM) were applied in a 40 μl volume inside an area of 1 cm^2 (restricted by a plastic ring) of the CAM on day 9 of embryo development. The appropriate vehicle controls were also tested. Forty-eight hours after treatment and subsequent incubation at 37° C., CAMs were fixed in situ, excised from the eggs, placed on slides and left to air-dry. Pictures were taken through a stereoscope equipped with a digital camera and the total length of the vessels was measured using image analysis software (NIH Image). For each group a total of 17-24 eggs from three different experiments were used. Data are presented as means±SEM and expressed as % of vehicle control. Statistical analysis (ANOVA followed by Dunnett's post-hoc test) was performed using Graph Pad.
# FIG. 6 depict results obtained on vessel length with peptides CGEN-G6 [SEQ ID NO: 6], CGEN-F9 [SEQ ID NO: 7], CGEN-F12 [SEQ ID NO: 8], CGEN-C6 [SEQ ID NO: 9], CGEN-A11 [SEQ ID NO: 10], and CGEN-G2 [SEQ ID NO: 11], compared to Tie2 neutralizing antibody (Ab) and the anti-angiogenic compound fumagillin. Neutralizing Tie2 Ab blocked vessel length by 36%, while the angiogenesis inhibitor fumagillin blocked vessel length by 32%.
# [3] = test system: oxygen-induced retinopathy (OIR); test: Rodent model of oxygen-induced retinopathy (OIR); format: in vivo, Sprague Dawley rats
# Source text: In order to assess the in viva efficacy of CGEN-A 11 [SEQ ID NO: 10] in a disease model of angiogenesis, a rodent model of oxygen-induced retinopathy (OIR) was used. Sprague Dawley rats were raised from birth through day PI4 in a variable oxygen atmosphere consisting of 24-hour alternating cycles of 50% and 10% oxygen. Rats were predisposed to pathological retinal angiogenesis as a result of oxygen treatment. Upon removal from the oxygen exposure chamber on day P14, rats received intravitreal injections of CGEN-A11 [SEQ ID NO: 10] in one of two doses: 15 μg/ml (low) or 75 μg/ml (high), 100 μg/ml recombinant rat Tie-2/Fc (R&D Systems, 3874-T2) or 100 μg/ml anti-VEGFR2 (Sigma, V1014) as positive controls, a combination of CGEN-A11 [SEQ ID NO: 10] at 30 μg/ml and anti-VEGFR2 (100 μg/ml), or vehicle (PBS) at a volume of 5 μl. An additional similar intravitreal administration took place 3 days later, on day P17. All pups were sacrificed on day P20. Both normal, intra-retinal vascular growth and abnormal, pre-retinal neovascular growth were assessed at six days post-exposure (P20) in ADPase-stained retinal flat-mounts, using widely published methods (e.g. Penn J S et al., 1991, Invest Ophthalmol Vis Sci. 32(4):1147; MicLeod D S et al., 1987, Microvasc Res. 33:257-269). All assessments were performed by a single, highly trained observer, who was blinded to treatment group. Areas of normal and abnormal vascular growth were measured via computer-assisted image analysis using high-resolution digital images of the stained retinal flat-mounts. The data were subjected to analysis of variance to determine statistical significance and a Dunnett's post hoc test to identify how the various treatment groups compared.
# Data are depicted using percent total retinal area vascularized. Sample sizes (10, 11 or 12) are indicated on each bar. […] These differences yielded statistical significance, both at p<0.0001. Statistical significance was calculated using area (mm^2) measurements.
# Data are depicted as area vascularized (mm^2). Sample sizes (10, 11 or 12) are indicated on each bar.
molecule,measurement,setting,value
Cc1ccc(C(=O)Nc2ccc(S(=O)(=O)O)c3cc(S(=O)(=O)O)cc(S(=O)(=O)O)c23)cc1NC(=O)c1cccc(NC(=O)Nc2cccc(C(=O)Nc3cc(C(=O)Nc4ccc(S(=O)(=O)O)c5cc(S(=O)(=O)O)cc(S(=O)(=O)O)c45)ccc3C)c2)c1 [suramin],reduction of tubule length,[1]; suramin 20 μM,50%
"CO[C@@H]1[C@H](OC(=O)/C=C/C=C/C=C/C=C/C(=O)O)CC[C@]2(CO2)[C@H]1[C@@]1(C)O[C@@H]1CC=C(C)C [fumagillin, reference compound]",inhibition of vessel length,[2],32%
VEGF,induction of tubule length,"[1]; VEGF 2 ng/mL, pro-angiogenic control",130%
B1,inhibition of pre-retinal neovascular growth (pathological angiogenesis),"[3]; Tie-2/Fc intravitreal 100 μg/ml, P20, p=0.0436",61.9%
same,intra-retinal normal vascular growth compared to PBS control,"[3]; intravitreal 100 μg/ml, 5 μl, P14 and P17, assessed P20, p<0.0001",statistically significant increase
